From the NIST ThermoML archive (doi:10.1021/je034177v)

Assay: molar heat capacity at constant pressure; xn = mol fraction of the nth substance listed
Settings: 101 kPa, Liquid, Small sample (50 mg) DSC

ClCCCCCCCl [1,6-dichlorohexane] + CCCCCCCCCCCC
molar heat capacity at constant pressure [J/K/mol]
Settings	283.15 K	288.15 K	293.15 K	298.15 K	303.15 K	308.15 K	313.15 K	318.15 K	323.15 K
x1 = 0.0498	361.24	363.25	365.49	367.75	370.17	372.73	375.36	378.07	380.85
x1 = 0.1003	354.21	356.2	358.37	360.64	363.07	365.53	368.13	370.69	373.37
x1 = 0.1497	347.4	349.35	351.58	353.74	356.06	358.52	361.02	363.62	366.28
x1 = 0.2527	333.57	335.52	337.63	339.74	341.93	344.27	346.63	349.13	351.62
x1 = 0.4017	314.16	315.92	317.89	319.79	321.84	323.95	326.16	328.4	330.71
x1 = 0.502	301.12	302.83	304.61	306.46	308.39	310.38	312.43	314.57	316.72
x1 = 0.6	288.34	289.93	291.62	293.38	295.19	297.07	299.01	300.97	303.01
x1 = 0.7011	275.07	276.6	278.22	279.86	281.55	283.34	285.15	287	288.89
x1 = 0.7986	262.36	263.83	265.4	266.9	268.5	270.16	271.87	273.6	275.38
x1 = 0.8998	249.37	250.76	252.22	253.67	255.12	256.63	258.18	259.77	261.42
x1 = 0.9493	242.86	244.24	245.67	247.09	248.51	249.99	251.5	253.03	254.57
x1 = 0.9691	240.39	241.75	243.14	244.52	245.9	247.38	248.85	250.37	251.9
x1 = 1	236.59	237.9	239.26	240.6	241.94	243.37	244.81	246.28	247.76

ClCCCCCCl [1,5-dichloropentane] + CCCCCCCCCCCC
molar heat capacity at constant pressure [J/K/mol]
Settings	283.15 K	288.15 K	293.15 K	298.15 K	303.15 K	308.15 K	313.15 K	318.15 K	323.15 K
x1 = 0.05237	359.49	361.46	363.6	365.89	368.28	370.79	373.41	376.07	378.83
x1 = 0.1014	351.13	353.16	355.31	357.53	359.81	362.28	364.84	367.48	370.16
x1 = 0.2008	334.84	336.79	338.81	340.93	343.08	345.47	347.87	350.35	352.88
x1 = 0.3039	318.47	320.33	322.17	324.17	326.18	328.38	330.63	332.93	335.27
x1 = 0.3945	304.32	305.98	307.85	309.6	311.52	313.55	315.68	317.86	320.07
x1 = 0.4983	288.13	289.64	291.34	293.02	294.78	296.69	298.58	300.38	302.59
x1 = 0.6014	271.74	273.2	274.79	276.35	277.97	279.71	281.49	283.32	285.18
x1 = 0.6987	256.4	257.78	259.23	260.76	262.21	263.83	265.47	267.13	268.85
x1 = 0.7975	240.83	242.08	243.45	244.78	246.18	247.69	249.17	250.73	252.27
x1 = 0.9021	224.47	225.7	226.92	228.16	229.39	230.74	232.08	233.47	234.85
x1 = 0.9497	217.25	218.41	219.54	220.73	221.9	223.14	224.4	225.7	227.02
x1 = 1	209.65	210.73	211.89	212.94	214.06	215.21	216.38	217.56	218.76
